1 molecule from ChEMBL document CHEMBL5728961, “Compounds useful for treating gastrointestinal tract disorders” (2022) can be followed below.

In assay [1] the target is T1, Sodium/hydrogen exchanger 3 (Homo sapiens, UniProt P48764).
T1 sequence (P48764 whole entry): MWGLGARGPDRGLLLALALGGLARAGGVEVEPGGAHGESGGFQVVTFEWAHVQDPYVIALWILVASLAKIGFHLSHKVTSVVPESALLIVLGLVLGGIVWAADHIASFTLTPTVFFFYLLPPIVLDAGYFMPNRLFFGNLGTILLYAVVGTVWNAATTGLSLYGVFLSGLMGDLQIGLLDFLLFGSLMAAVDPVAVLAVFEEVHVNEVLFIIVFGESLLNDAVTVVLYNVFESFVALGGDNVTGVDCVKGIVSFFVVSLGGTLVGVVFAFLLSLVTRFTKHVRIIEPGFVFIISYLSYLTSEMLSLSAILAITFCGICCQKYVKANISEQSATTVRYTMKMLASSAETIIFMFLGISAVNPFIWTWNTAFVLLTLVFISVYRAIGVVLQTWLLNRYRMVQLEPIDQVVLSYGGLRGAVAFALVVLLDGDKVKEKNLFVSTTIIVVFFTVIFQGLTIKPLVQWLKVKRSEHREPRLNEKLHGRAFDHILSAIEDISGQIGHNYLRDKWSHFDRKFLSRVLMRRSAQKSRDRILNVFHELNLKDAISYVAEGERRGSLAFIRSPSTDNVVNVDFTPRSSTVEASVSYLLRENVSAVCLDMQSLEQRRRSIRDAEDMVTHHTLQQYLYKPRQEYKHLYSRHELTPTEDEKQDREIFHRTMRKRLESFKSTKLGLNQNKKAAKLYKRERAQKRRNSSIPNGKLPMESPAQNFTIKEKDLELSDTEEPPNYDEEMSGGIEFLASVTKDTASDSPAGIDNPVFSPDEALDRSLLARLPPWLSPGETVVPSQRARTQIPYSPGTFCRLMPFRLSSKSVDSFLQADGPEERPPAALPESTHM
Put plainly: Cell-Based Assay of NHE-3 Activity (Pre-Incubation Inhibition): Rat and human NHE-3-mediated Na+-dependent H+ antiport was measured using a modification of the pH sensitive dye method originally reported by Paradiso (Proc. Natl. Acad. Sci. USA. (1984) 81(23): 7436-7440). PS120 fibroblasts stably expressing human NHE3 and NHERF2 were obtained from Mark Donowitz (Baltimore, Md.). Opossum kidney (OK) cells were obtained from the ATCC and propagated per their instructions. The rat NHE-3 gene (GenBank M85300) was introduced into OK cells via electroporation, and cells were seeded into 96 well plates and grown overnight. Medium was aspirated from the wells then incubated for 30 min at 37° C. with NH4Cl-HEPES buffer (20 mM NH4Cl, 80 mM NaCl, 50 mM HEPES, 5 mM KCl, 2 mM CaCl2, 1 mM MgCl2, pH 7.4) containing 5 μM BCECF-AM. Cells were washed once with Ammonium free, Na+-free HEPES (100 mM choline, 50 mM HEPES, 10 mM glucose, 5 mM KCl, 2 mM CaCl2, 1 mM MgCl2, pH 7.4) and incubated in the same buffer for 10 minutes at room temperature to lower intracellular pH with 0-30 μM test compound. […] Changes in intracellular pH were monitored using a FLIPR Tetra® (Molecular Devices, Sunnyvale, Calif.) by excitation at λex 439 to 505 nm, and measuring BCECF fluorescence at λem 538 nm. The initial rate of the fluorescence ratio change was used as a measure of NHE-mediated Na+/H+ activity, and reported as the change in fluorescence ratio per minute.

The target in assay [2] is T1, Sodium/hydrogen exchanger 3. In words: Cell-Based Assay of NHE-3 Activity (Persistent Inhibition): The ability of compounds to inhibit human and rat NHE-3-mediated Na+ dependent H+ antiport after application and washout was measured using a modification of the pH sensitive dye method described above. PS120 fibroblasts stably expressing human NHE3 and NHERF2 were obtained from Mark Donowitz (Baltimore, Md.). Opossum kidney (OK) cells were obtained from the ATCC and propagated per their instructions. The rat NHE-3 gene was introduced into OK cells via electroporation, and cells were seeded into 96 well plates and grown overnight. Medium was aspirated from the wells, cells were washed once with NaCl-HEPES buffer (100 mM NaCl, 50 mM HEPES, 10 mM glucose, 5 mM KCl, 2 mM CaCl2, 1 mM MgCl2, pH 7.4), then overlayed with NaCl-HEPES buffer containing 0-30 μM test compound. After a 60 min incubation at room temperature, the test drug containing buffer was aspirated from the cells. Following aspiration, cells were washed once with NaCl-HEPES buffer without drug, then incubated for 30 min at 37° C. with NH4Cl-HEPES buffer (20 mM NH4Cl, 80 mM NaCl, 50 mM HEPES, 5 mM KCl, 2 mM CaCl2, 1 mM MgCl2, pH 7.4) containing 5 μM BCECF-AM. Cells were washed once with Ammonium free, Na+-free HEPES (100 mM choline, 50 mM HEPES, 10 mM glucose, 5 mM KCl, 2 mM CaCl2, 1 mM MgCl2, pH 7.4) and incubated in the same buffer for 10 minutes at room temperature to lower intracellular pH. NHE-3-mediated recovery of neutral intracellular pH was initiated ([…]) by addition of Na-HEPES buffer. […] Changes in intracellular pH were monitored using a FLIPR Tetra® (Molecular Devices, Sunnyvale, Calif.) by excitation at λex 439 to 505 nm, and measuring BCECF fluorescence at λem 538 nm. The initial rate of the fluorescence ratio change was used as a measure of NHE-mediated Na+/H+ activity, and reported as the change in fluorescence ratio per minute.

Each structure is given as a SMILES string.

A word on the IC50: it is the concentration needed to halve the response being measured. As for `O=C(NCCCCNC(=O)NCCOCCN1CC[C@H](NS(=O)(=O)c2ccc(O[C@H]3c4cc(Cl)cc(Cl)c4C[C@@H]3N3CCNCC3)c(F)c2)C1)NCCOCCN1CC[C@H](NS(=O)(=O)c2ccc(O[C@H]3c4cc(Cl)cc(Cl)c4C[C@@H]3N3CCNCC3)c(F)c2)C1`, the IC50 in assay [1] and in assay [2] was less than 100 nM in each case.
